From US5043450A, “8-alkoxyquinolonecarboxylic acid and salts thereof” (priority 1986, dated 1991)
≈ marks a conversion by molar mass, not a printed value.

How the values were obtained:
Type in all cases: cell-based
[1] = test system: Staphylococcus aureus 209 P; assay: Antibacterial spectra, MIC; conditions: 10^6 cells/ml, Gram +, read-out: MIC
S. aureus Smith = assay: Antibacterial spectra, MIC; conditions: Staphylococcus aureus; 10^6 cells/ml; Gram +; read-out: MIC
S. epidermidis IID 866 = assay: Antibacterial spectra, MIC; conditions: Staphylococcus epidermidis, IID866; 10^6 cells/ml; Gram +; read-out: MIC
E. coli ML 4707 = assay: Antibacterial spectra, MIC; conditions: Escherichia coli, ML4707; 10^6 cells/ml; Gram -
Experimental: (§1) The antibacterial test was carried out according to the method designated by Japan Society of Chemotherapy.

E. faecalis IID 682 = assay: Antibacterial spectra, MIC; conditions: Enterococcus faecalis, IID682; 10^6 cells/ml; Gram +
Experimental: as §1

[2] = test system: Proteus vulgaris IFO 3167; assay: Antibacterial spectra, MIC; conditions: IFO3167, 10^6 cells/ml, Gram -
Experimental: as §1

Shigella sonnei IID 969 = assay: Antibacterial spectra, MIC; conditions: IID969, 10^6 cells/ml, Gram -
Experimental: as §1

[3] = test system: Streptococcus pyogenes (S-8); assay: Antibacterial spectra, MIC; conditions: 10^6 cells/ml, Gram +
Experimental: as §1

S. pyogenes IID 692 = assay: Antibacterial spectra, MIC; conditions: Streptococcus pyogenes, IID692; 10^6 cells/ml; Gram +; read-out: MIC
[4] = test system: Escherichia coli NIHJ JC-2; assay: Antibacterial spectra, MIC; conditions: NIHJJC2
E. coli ATCC 10536 = assay: Antibacterial spectra, MIC; conditions: Escherichia coli, ATCC10536
P. mirabilis IID 994 = assay: Antibacterial spectra, MIC; conditions: Proteus mirabilis, IID994; 10^6 cells/ml; Gram -; read-out: MIC
[5] = test system: Morganella morganii IID 602; assay: Antibacterial spectra, MIC; conditions: IID602, 10^6 cells/ml, Gram -, read-out: MIC
[6] = test system: Klebsiella pneumoniae KY(GN)6445; assay: Antibacterial spectra, MIC
K. pneumoniae 1-220S = assay: Antibacterial spectra, MIC; conditions: Klebsiella pneumoniae, 1220S; 10^6 cells/ml; Gram -; read-out: MIC
[7] = test system: Enterobacter cloacae IID 977; assay: Antibacterial spectra, MIC; conditions: IID977, 10^6 cells/ml, Gram -, read-out: MIC
[8] = test system: Citrobacter freundii IID 976; assay: Antibacterial spectra, MIC; conditions: IID976, 10^6 cells/ml, Gram -, read-out: MIC
[9] = test system: Serratia marcescens IID 618; assay: Antibacterial spectra, MIC; conditions: IID618, 10^6 cells/ml, Gram -, read-out: MIC
[10] = test system: Pseudomonas aeruginosa V-1; assay: Antibacterial spectra, MIC; conditions: V1, 10^6 cells/ml, Gram -, read-out: MIC
P. aeruginosa IID 1210 = assay: Antibacterial spectra, MIC; conditions: Pseudomonas aeruginosa, IID1210; 10^6 cells/ml; Gram -; read-out: MIC
[11] = test system: Yersinia enterocolitica IID 981; assay: Antibacterial spectra, MIC; conditions: IID981, 10^6 cells/ml, Gram -, read-out: MIC
[12] = test system: Acinetobacter anitratus IID 876; assay: Antibacterial spectra, MIC; conditions: Acinetobacter calcoaceticus, IID876; 10^6 cells/ml; Gram -; read-out: MIC
[13] = test system: Alcaligenes faecalis 0114002; assay: Antibacterial spectra, MIC; conditions: 10^6 cells/ml, Gram -, read-out: MIC
[14] = test system: Bacteroides fragilis GM 7000; assay: Antibacterial spectra, MIC; conditions: GM7000, 10^6 cells/ml, Gram -, read-out: MIC
B. fragilis 0558 = assay: Antibacterial spectra, MIC; conditions: Bacteroides fragilis, 10^6 cells/ml, Gram -, read-out: MIC
B. fragilis 25285 = assay: Antibacterial spectra, MIC; conditions: Bacteroides fragilis, 10^6 cells/ml, Gram -, read-out: MIC
B. distasonis 8503 = assay: Antibacterial spectra, MIC; conditions: Parabacteroides distasonis, 10^6 cells/ml, Gram -, read-out: MIC
[15] = test system: B. thetaiotaomicron (0661); assay: Antibacterial spectra, MIC; conditions: Bacteroides thetaiotaomicron; 10^6 cells/ml; Gram -; read-out: MIC
[16] = test system: Fusobacterium mortiferum 4249; assay: Antibacterial spectra, MIC; conditions: 10^6 cells/ml, Gram -, read-out: MIC
F. necrophorum S-45 = assay: Antibacterial spectra, MIC; conditions: Fusobacterium necrophorum, S45; 10^6 cells/ml; Gram -; read-out: MIC
[17] = test system: Eubacterium lentum GAI 5242; assay: Antibacterial spectra, MIC; conditions: Eggerthella lenta, GAI5242
[18] = test system: Propionibacterium acens 11828; assay: Antibacterial spectra, MIC; conditions: 10^6 cells/ml, Gram +, read-out: MIC
[19] = test system: Peptococcus magnus KY 017; assay: Antibacterial spectra, MIC; conditions: Finegoldia magna, KY017; 10^6 cells/ml; Gram +; read-out: MIC
C. perfringens KYA 13123 = assay: microbe, parasite or virus in culture; conditions: Clostridium perfringens, KYA13123
Pst. micros UPI 5464-1 = assay: Antibacterial spectra, MIC; conditions: Parvimonas micra, UPI54641; 10^6 cells/ml; Gram +; read-out: MIC
[20] = test system: Veillonella parvula KYA 10790; assay: Antibacterial spectra, MIC; conditions: KYA10790, 10^6 cells/ml, Gram -, read-out: MIC

CCOc1c(N2CCNCC2)c(F)cc2c(=O)c(C(=O)O)cn(C3CC3)c12 [Exp. 18, 1-cyclopropyl-6-fluoro-1,4-dihydro-8-ethoxy-4-oxo-7-(1-piperazinyl)-3-quinolinecarboxylic acid]
MIC [1]: 0.2 µg/mL (≈ 0.533 µM) | MIC (S. aureus Smith): 0.39 µg/mL (≈ 1.04 µM) | MIC (S. epidermidis IID 866): 0.39 µg/mL (≈ 1.04 µM) | MIC (E. coli ML 4707): ≤ 0.05 µg/mL | MIC (E. faecalis IID 682): 1.56 µg/mL | MIC [2]: ≤ 0.05 µg/mL | MIC (Shigella sonnei IID 969): ≤ 0.05 µg/mL | MIC [3]: 1.56 µg/mL | MIC (S. pyogenes IID 692): 3.13 µg/mL (≈ 8.34 µM) | MIC [4]: ≤ 0.05 µg/mL | MIC (E. coli ATCC 10536): ≤ 0.05 µg/mL | MIC (P. mirabilis IID 994): 0.1 µg/mL (≈ 0.266 µM) | MIC [5]: 0.39 µg/mL (≈ 1.04 µM) | MIC [6]: ≤ 0.05 µg/mL | MIC (K. pneumoniae 1-220S): 0.2 µg/mL (≈ 0.533 µM) | MIC [7]: 0.2 µg/mL (≈ 0.533 µM) | MIC [8]: 0.1 µg/mL (≈ 0.266 µM) | MIC [9]: 0.2 µg/mL (≈ 0.533 µM) | MIC [10]: 0.78 µg/mL (≈ 2.08 µM) | MIC (P. aeruginosa IID 1210): 6.25 µg/mL (≈ 16.6 µM) | MIC [11]: 0.2 µg/mL (≈ 0.533 µM) | MIC [12]: 0.1 µg/mL (≈ 0.266 µM) | MIC [13]: 0.78 µg/mL (≈ 2.08 µM) | MIC [14]: 3.13 µg/mL (≈ 8.34 µM) | MIC (B. fragilis 0558): 12.5 µg/mL (≈ 33.3 µM) | MIC (B. fragilis 25285): 3.13 µg/mL (≈ 8.34 µM) | MIC (B. distasonis 8503): 12.5 µg/mL (≈ 33.3 µM) | MIC [15]: 12.5 µg/mL (≈ 33.3 µM) | MIC [16]: 3.13 µg/mL (≈ 8.34 µM) | MIC (F. necrophorum S-45): 3.13 µg/mL (≈ 8.34 µM) | MIC [17]: 1.56 µg/mL (≈ 4.16 µM) | MIC [18]: 12.5 µg/mL (≈ 33.3 µM) | MIC [19]: 0.78 µg/mL (≈ 2.08 µM) | MIC (C. perfringens KYA 13123): 1.56 µg/mL (≈ 4.16 µM) | MIC (Pst. micros UPI 5464-1): 0.78 µg/mL (≈ 2.08 µM) | MIC [20]: 0.78 µg/mL (≈ 2.08 µM)
